Measurements as given in ChEMBL document CHEMBL1137870, “Synthesis and evaluation of 2-amino-8-alkoxy quinolines as MCHr1 antagonists. Part 2” (Bioorg Med Chem Lett, 2004).

Key:
[1] = target: T1, Melanin-concentrating hormone receptor 1 (Homo sapiens, UniProt Q99705); assay: Concentration required to inhibit binding of [125I]-MCH radioligand to human Melanin-concentrating hormone receptor 1 in IMR-32 I3.4.2 cell membranes
[2] = target: T1, Melanin-concentrating hormone receptor 1; assay: Concentration required to inhibit 50% of melanin-concentrating hormone induced [Ca2+] flux in IMR-32 cells measured by using a fluorometric imaging plate reader; format: functional, cell-based
[3] = Area under curve in plasma was determined at the peroral dose of 10 mg/kg in diet-induced obese (DIO) mice; format: ADME, organism-based; parameters: dose 10 mg/kg, route oral; details: mouse, in vivo, po
[4] = Brain/plasma ratio was determined at peroral dose of 10 mg/kg in diet-induced obese (DIO) mice; format: ADME, organism-based; parameters: dose 10 mg/kg, route oral; details: mouse, brain and plasma, po
[5] = Area under curve in brain was determined at the peroral dose of 10 mg/kg in diet-induced obese (DIO) mice; format: ADME, organism-based; parameters: dose 10 mg/kg, route oral; details: mouse, in vivo, po
[6] = Half life in plasma was determined at the peroral dose of 10 mg/kg in diet-induced obese (DIO) mice; format: ADME, organism-based; parameters: dose 10 mg/kg, route oral; details: mouse, po
[7] = Half life in brain was determined at the peroral dose of 10 mg/kg in diet-induced obese (DIO) mice; format: ADME, organism-based; parameters: dose 10 mg/kg, route oral; details: mouse, po

T1 sequence (Q99705 whole entry): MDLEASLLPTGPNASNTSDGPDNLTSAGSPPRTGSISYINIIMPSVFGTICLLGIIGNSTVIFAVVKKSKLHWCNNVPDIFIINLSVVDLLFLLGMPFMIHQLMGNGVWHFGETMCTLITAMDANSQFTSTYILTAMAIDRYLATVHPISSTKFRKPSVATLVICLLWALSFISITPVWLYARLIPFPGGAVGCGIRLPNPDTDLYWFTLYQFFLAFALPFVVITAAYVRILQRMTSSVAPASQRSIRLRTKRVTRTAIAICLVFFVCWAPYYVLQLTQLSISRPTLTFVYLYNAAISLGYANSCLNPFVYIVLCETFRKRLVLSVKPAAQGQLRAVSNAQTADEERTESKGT

| Structure (SMILES) | IC50 [1] [µM] | IC50 [2] [µM] | other results |
| --- | --- | --- | --- |
| CC(CC(C)(C)C)Oc1cccc2ccc(N)nc12 (stereo not given) | 0.05 |  |  |
| CC(CNCc1ccccc1)Oc1cccc2ccc(N)nc12 (stereo not given) | 0.1 | 0.34 |  |
| CC(CN1CCCCC1)Oc1cccc2ccc(N)nc12 (stereo not given) | 0.04 | 0.29 |  |
| CC(CNC1CC1)Oc1cccc2ccc(N)nc12 (stereo not given) | 0.05 | 0.58 |  |
| CC(CNC1CCCC1)Oc1cccc2ccc(N)nc12 (stereo not given) | 0.03 | 0.03 |  |
| CC(CN1CCOCC1)Oc1cccc2ccc(N)nc12 (stereo not given) | 0.08 | 0.19 |  |
| CC(CN1CCCC1)Oc1cccc2ccc(N)nc12 (stereo not given) | 0.07 | 0.36 |  |
| CC(CNCc1ccc2c(c1)OCO2)Oc1cccc2ccc(N)nc12 (stereo not given) | 0.03 | 0.13 |  |
| CC(C)c1ccc(C(=O)NCCCOc2cccc3ccc(N)nc23)cc1 | 0.06 | 0.14 |  |
| O=C(NCCCOc1cccc2ccc(NCc3ccc(-c4ccccc4Cl)o3)nc12)Nc1ccc2c(c1)OCO2 | 0.05 | 3.11 |  |
| Nc1ccc2cccc(OCCNCc3ccc4c(c3)OCO4)c2n1 | 0.52 | 8.96 |  |
| Nc1ccc2cccc(OCCNCc3ccoc3)c2n1 | 0.66 | > 10 |  |
| CCCNc1ccc2cccc(OCCCNC(=O)c3cccc(Cl)c3)c2n1 | 0.01 | 1.12 |  |
| CC(CNc1ccc2[nH]ncc2c1)Oc1cccc2ccc(N)nc12 (stereo not given) | 0.53 | 8.18 |  |
| CC(CNC1CCCCC1)Oc1cccc2ccc(N)nc12 (stereo not given) | 0.21 | 2.17 |  |
| CC(CNCC1CC1)Oc1cccc2ccc(N)nc12 (stereo not given) | 0.08 | 0.46 |  |
| CC(CNCC1CCCC1)Oc1cccc2ccc(N)nc12 (stereo not given) | 0.1 | 0.1 |  |
| CN(C)CC1CCc2cc(NC(=O)c3ccc(-c4ccc(F)cc4)cc3)ccc2C1 (single isomer, unassigned; (-)) | 0.085 | 0.872 |  |

Second part, led by results:

| IC50 [1] [µM] | IC50 [2] [µM] | Structure (SMILES) | other results |
| --- | --- | --- | --- |
| 0.0004 | 0.003 | Nc1ccc2cccc(OCCCNC(=O)c3cccc(Cl)c3)c2n1 |  |
| 0.002 | 0.04 | N#Cc1cccc(C(=O)NCCCOc2cccc3ccc(NCc4ccc(-c5ccc(Cl)cc5)o4)nc23)c1 |  |
| 0.001 | 0.6 | COc1cccc(CNCC(C)Oc2cccc3ccc(N)nc23)c1 (stereo not given) |  |
| 0.005 | 0.11 | Nc1ccc2cccc(OCCCNC(=O)Nc3ccc4c(c3)OCO4)c2n1 |  |
| 0.007 | 0.07 | Nc1ccc2cccc(OCCCNC(=O)c3ccc4c(c3)OCO4)c2n1 |  |
| 0.002 | 0.03 | COc1cccc(C(=O)NCCCOc2cccc3ccc(N)nc23)c1 |  |
| 0.0009 | 0.008 | Nc1ccc2cccc(OCCCNC(=O)Nc3cccc(Cl)c3)c2n1 |  |
| 0.003 | 0.007 | N#Cc1cccc(C(=O)NCCCOc2cccc3ccc(N)nc23)c1 | AUC [3]: 328 ng·h/mL; Kp [4]: 0.03; AUC [5]: 11 ng·h/mL; half-life [6]: 1.4 h; half-life [7]: 1.6 h |
| 0.01 | 0.63 | CC(C)c1ccc(CNCCCOc2cccc3ccc(N)nc23)cc1 |  |
| 0.01 | 0.15 | CC(CNCc1ccsc1)Oc1cccc2ccc(N)nc12 (stereo not given) |  |
| 0.001 | 0.1 | Nc1ccc2cccc(OCCCNc3ccc4c(c3)OC(F)(F)O4)c2n1 |  |
| 0.01 | 0.27 | Nc1ccc2cccc(OCCCNc3ccc4c(c3)OCO4)c2n1 |  |
| 0.01 | 0.1 | CC(CNCc1ccoc1)Oc1cccc2ccc(N)nc12 (stereo not given) |  |
| 0.001 | 0.02 | O=C(NCCCOc1cccc2ccc(NCc3ccc(-c4ccccc4Cl)o3)nc12)c1cccc(Cl)c1 |  |
| 0.005 | 0.01 | N#Cc1cccc(C(=O)NCCCOc2cccc3ccc(NCc4ccc(-c5cccc(Cl)c5)o4)nc23)c1 |  |
| 0.005 | 0.22 | Nc1ccc2cccc(OCCCNCc3ccc(Cl)c(C(F)(F)F)c3)c2n1 | AUC [3]: 9960 ng·h/mL; Kp [4]: 0.96; AUC [5]: 9520 ng·h/mL; half-life [6]: 8.9 h |
| 0.006 | 0.02 | Nc1ccc2cccc(OCCCNC(=O)c3cccc(OC(F)(F)F)c3)c2n1 | AUC [3]: 424 ng·h/mL; Kp [4]: 0.2; AUC [5]: 68 ng·h/mL; half-life [6]: 1.2 h; half-life [7]: 0.6 h |
| 0.003 | 0.015 | COCC1=C(C(=O)OC)[C@H](c2ccc(F)c(F)c2)N(C(=O)NCCCN2CCC(c3cccc(NC(C)=O)c3)CC2)C(=O)N1 [SNAP-7941] |  |
